In PubChem BioAssay AID248 (DTP/NCI, 2004):
Values joined by “and” are separate entries in the source; they are usually repeats but may differ in a detail not shown here. Equal entries are not always repeated. Inconclusive results and toxic doses are left out. Cut-off read from the data, not from the text of the source: active = T/C of 150% or more; inactive = T/C below 125%.

System: L1210 leukemia ip in BDF1 mice, survival T/C
Assay: NCI In Vivo Anticancer Drug Screen. Data for tumor model L1210 Leukemia (intraperitoneal) in B6D2F1 (BDF1) mice
Details: endpoint: mean survival time, higher = longer survival
In short: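 Each compound was tested against a transplantable tumor grown in mice. The endpoint was survival, with treated animals benchmarked against vehicle controls as a simple ratio.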

[1] = dose: 100.0 mg/kg/injection, schedule: Q04DX003 (ip), vehicle: Klucel (hydroxypropylcellulose) (HPC)
[2] = dose: 100.0 mg/kg/injection, schedule: Q04DX003 (ip), vehicle: saline
[3] = dose: 200.0 mg/kg/injection, schedule: Q04DX003 (ip), vehicle: saline
[4] = dose: 50.0 mg/kg/injection, schedule: Q01DX001 (ip), vehicle: saline
[5] = dose: 100.0 mg/kg/injection, schedule: Q01DX001 (ip), vehicle: saline
[6] = dose: 200.0 mg/kg/injection, schedule: Q01DX001 (ip), vehicle: saline
[7] = dose: 400.0 mg/kg/injection, schedule: Q01DX001 (ip), vehicle: saline
[8] = dose: 100.0 mg/kg/injection, schedule: Q01DX001 (ip), vehicle: carboxymethylcellulose (CMC)
[9] = dose: 200.0 mg/kg/injection, schedule: Q01DX001 (ip), vehicle: carboxymethylcellulose (CMC)
[10] = dose: 400.0 mg/kg/injection, schedule: Q01DX001 (ip), vehicle: carboxymethylcellulose (CMC)
[11] = dose: 200.0 mg/kg/injection, schedule: Q04DX003 (ip), vehicle: Klucel (hydroxypropylcellulose) (HPC)
[12] = dose: 400.0 mg/kg/injection, schedule: Q04DX003 (ip), vehicle: Klucel (hydroxypropylcellulose) (HPC)

Measured: T/C

CC(C)c1ccc(/C=N/NC(=O)c2ccncc2)cc1
inactive: dose: 100.0 mg/kg/injection, schedule: Q01DX009 (ip), vehicle: saline 100 % of control

O=C(CCN1CC1)OC1CCCC1
inactive: dose: 0.25 mg/kg/injection, schedule: Q01DX009 (ip), vehicle: Klucel (hydroxypropylcellulose) (HPC) 91 % of control | dose: 0.5 mg/kg/injection, schedule: Q01DX009 (ip), vehicle: Klucel (hydroxypropylcellulose) (HPC) 97 % of control | dose: 1.0 mg/kg/injection, schedule: Q01DX009 (ip), vehicle: Klucel (hydroxypropylcellulose) (HPC) 103 % of control | dose: 2.5 mg/kg/injection, schedule: Q01DX009 (ip), vehicle: Klucel (hydroxypropylcellulose) (HPC) 100 % of control | dose: 20.0 mg/kg/injection, schedule: Q04DX003 (ip), vehicle: Klucel (hydroxypropylcellulose) (HPC) 98 % of control | dose: 40.0 mg/kg/injection, schedule: Q04DX003 (ip), vehicle: Klucel (hydroxypropylcellulose) (HPC) 97 % of control | dose: 80.0 mg/kg/injection, schedule: Q04DX003 (ip), vehicle: Klucel (hydroxypropylcellulose) (HPC) 97 % of control | [1] 102 % of control

CCCSC1=C(N2CC2)C(=O)C(SCCC)=C(N2CC2)C1=O
inactive: dose: 6.25 mg/kg/injection, schedule: Q04DX003 (ip), vehicle: saline 98 % of control | dose: 12.5 mg/kg/injection, schedule: Q04DX003 (ip), vehicle: saline 104 % of control | dose: 25.0 mg/kg/injection, schedule: Q04DX003 (ip), vehicle: saline 97 % of control | dose: 50.0 mg/kg/injection, schedule: Q04DX003 (ip), vehicle: saline 103 % of control | [2] 108 % of control | [3] 116 % of control

Clc1cc(Cl)c(OCC#CI)cc1Cl
inactive: [4] 104 % of control | [5] 98 % of control | [6] 93 % of control | [7] 89 % of control

CC(C)N(C(=O)C1C2CCC(CC2)C1C(=O)N(C(C)C)C(C)C)C(C)C (centres undefined)
inactive: [2] 100 % of control | [3] 100 % of control | dose: 400.0 mg/kg/injection, schedule: Q04DX003 (ip), vehicle: saline 100 % of control

O=C(CCl)c1cccnc1C(=O)O
inactive: dose: 25.0 mg/kg/injection, schedule: Q01DX009 (ip), vehicle: saline sonified 94 % of control | dose: 50.0 mg/kg/injection, schedule: Q01DX009 (ip), vehicle: saline sonified 91 % of control | dose: 100.0 mg/kg/injection, schedule: Q01DX009 (ip), vehicle: saline sonified 89 % of control

CN(C)c1c(-c2ccccc2)cc(-c2ccccc2)[nH]c1=O
inactive: [8] 95 % of control | [9] 95 % of control | [10] 88 % of control

CCOC(=O)NS(=O)(=O)[N+](CC)(CC)CC
inactive: [8] 97 % of control | [9] 97 % of control | [10] 100 % of control

CNCCCNCC1C(c2ccccc2)C1c1ccccc1 (centres undefined)
inactive: dose: 25.0 mg/kg/injection, schedule: Q04DX002 (ip), vehicle: saline 100 % of control and 90 % of control | dose: 50.0 mg/kg/injection, schedule: Q04DX002 (ip), vehicle: saline 103 % of control | dose: 100.0 mg/kg/injection, schedule: Q04DX002 (ip), vehicle: saline 86 % of control and 97 % of control

Oc1cc(CN2CCCC2)c(O)cc1CN1CCCC1
inactive: dose: 75.0 mg/kg/injection, schedule: Q01DX001 (ip), vehicle: carboxymethylcellulose (CMC) 111 % of control | dose: 150.0 mg/kg/injection, schedule: Q01DX001 (ip), vehicle: carboxymethylcellulose (CMC) 105 % of control

CCC(=O)Nc1cccc(OP(=O)(N(C)C)N(C)C)c1
inactive: dose: 100.0 mg/kg/injection, schedule: Q01DX001 (ip), vehicle: saline with Tween-80 96 % of control | dose: 200.0 mg/kg/injection, schedule: Q01DX001 (ip), vehicle: saline with Tween-80 102 % of control | dose: 400.0 mg/kg/injection, schedule: Q01DX001 (ip), vehicle: saline with Tween-80 88 % of control

CCCCOP(=O)(/C=C(\C#N)C(=O)OCC)OCCCC
inactive: [1] 87 % of control | [11] 103 % of control | [12] 98 % of control

S=c1nc[nH]c2c1N=CNN2
inactive: dose: 5.0 mg/kg/injection, schedule: Q01DX001 (ip), vehicle: carboxymethylcellulose (CMC) 115 % of control | dose: 10.0 mg/kg/injection, schedule: Q01DX001 (ip), vehicle: carboxymethylcellulose (CMC) 90 % of control | dose: 20.0 mg/kg/injection, schedule: Q01DX001 (ip), vehicle: carboxymethylcellulose (CMC) 101 % of control | dose: 40.0 mg/kg/injection, schedule: Q01DX001 (ip), vehicle: carboxymethylcellulose (CMC) 96 % of control

Cc1ccc(/C=N\N=C(\N)N/N=C/c2ccc(C)cc2)cc1
inactive: dose: 15.0 mg/kg/injection, schedule: Q01DX Z (ip), vehicle: carboxymethylcellulose (CMC) 95 % of control | dose: 30.0 mg/kg/injection, schedule: Q01DX Z (ip), vehicle: carboxymethylcellulose (CMC) 93 % of control | dose: 60.0 mg/kg/injection, schedule: Q01DX Z (ip), vehicle: carboxymethylcellulose (CMC) 87 % of control | dose: 120.0 mg/kg/injection, schedule: Q01DX Z (ip), vehicle: carboxymethylcellulose (CMC) 96 % of control | dose: 120.0 mg/kg/injection, schedule: Q01DX Z (oral), vehicle: carboxymethylcellulose (CMC) 101 % of control | dose: 240.0 mg/kg/injection, schedule: Q01DX Z (oral), vehicle: carboxymethylcellulose (CMC) 101 % of control | dose: 480.0 mg/kg/injection, schedule: Q01DX Z (oral), vehicle: carboxymethylcellulose (CMC) 96 % of control | dose: 960.0 mg/kg/injection, schedule: Q01DX Z (oral), vehicle: carboxymethylcellulose (CMC) 101 % of control

Oc1ccc(Br)cc1/C=N\NC(=S)Nc1ccc2cn[nH]c2c1
inactive: dose: 25.0 mg/kg/injection, schedule: Q01DX001 (ip), vehicle: carboxymethylcellulose (CMC) 90 % of control | dose: 50.0 mg/kg/injection, schedule: Q01DX001 (ip), vehicle: carboxymethylcellulose (CMC) 101 % of control | [8] 93 % of control | [9] 86 % of control | [10] 107 % of control

COC(=N)Cc1ccccc1
inactive: dose: 75.0 mg/kg/injection, schedule: Q01DX009 (ip), vehicle: saline with Tween-80 100 % of control | dose: 150.0 mg/kg/injection, schedule: Q01DX009 (ip), vehicle: saline with Tween-80 101 % of control | dose: 300.0 mg/kg/injection, schedule: Q01DX009 (ip), vehicle: saline with Tween-80 101 % of control

Cn1nc2c(c1-c1ccc(O)cc1)CCCc1ccccc1-2
inactive: [1] 100 % of control | [11] 98 % of control | [12] 98 % of control

CCCCCCCCCCN=C(N)N/C(N)=N/S(=O)(=O)c1ccc(OCCCC)cc1
inactive: dose: 100.0 mg/kg/injection, schedule: Q04DX002 (ip), vehicle: Klucel (hydroxypropylcellulose) (HPC) 103 % of control | dose: 200.0 mg/kg/injection, schedule: Q04DX002 (ip), vehicle: Klucel (hydroxypropylcellulose) (HPC) 95 % of control | dose: 400.0 mg/kg/injection, schedule: Q04DX002 (ip), vehicle: Klucel (hydroxypropylcellulose) (HPC) 103 % of control

CN(C)C1C(=O)C(C(N)=O)=C(O)C2(O)C(=O)C3=C(O)c4c(O)cccc4C(C)(O)C3C(O)C12 (centres undefined)
inactive: dose: 19.5 mg/kg/injection, schedule: Q01DX Z (ip), vehicle: carboxymethylcellulose (CMC) 94 % of control | dose: 39.0 mg/kg/injection, schedule: Q01DX Z (ip), vehicle: carboxymethylcellulose (CMC) 91 % of control | [4] 93 % of control | dose: 50.0 mg/kg/injection, schedule: Q01DX Z (ip), vehicle: water 117 % of control | dose: 78.0 mg/kg/injection, schedule: Q01DX Z (ip), vehicle: carboxymethylcellulose (CMC) 89 % of control | [5] 90 % of control | dose: 100.0 mg/kg/injection, schedule: Q01DX Z (ip), vehicle: water 119 % of control | dose: 156.0 mg/kg/injection, schedule: Q01DX Z (ip), vehicle: carboxymethylcellulose (CMC) 98 % of control | [6] 95 % of control | [7] 101 % of control

OCC[CH2][Sn]([c]1ccccc1)([c]1ccccc1)[c]1ccccc1
inactive: dose: 6.25 mg/kg/injection, schedule: Q04DX002 (ip), vehicle: saline with Tween-80 101 % of control | dose: 12.5 mg/kg/injection, schedule: Q04DX002 (ip), vehicle: saline with Tween-80 101 % of control | dose: 25.0 mg/kg/injection, schedule: Q04DX002 (ip), vehicle: saline with Tween-80 87 % of control | dose: 50.0 mg/kg/injection, schedule: Q01DX009 (ip), vehicle: saline with Tween-80 96 % of control | dose: 100.0 mg/kg/injection, schedule: Q01DX009 (ip), vehicle: saline with Tween-80 96 % of control | dose: 200.0 mg/kg/injection, schedule: Q01DX009 (ip), vehicle: saline with Tween-80 96 % of control
